SMILES strings stand for the structures. Like-named read-outs stand apart in the source and are kept apart here.

The subject of series [1] is Corn Earworm (CEW) (Helicoverpa zea). Kind of series: Bioassay on Corn Earworm (CEW), 128-well diet tray assay. In kind it is in vivo. The note with it: Table 3: Assay Results Part 1, read-out: CEW Rating. On the procedure:
(§1) Certain molecules disclosed in this document were tested against BAW, CEW and CL using procedures described in the following examples. In the reporting of the results, the “BAW & CEW & CL Rating Table” was used (See Table Section).
Bioassays on CEW (Helicoverpa zea)
Bioassays on CEW were conducted using a 128-well diet tray assay. One to five second instar CEW larvae were placed in each well (3 mL) of the diet tray that had been previously filled with 1 mL of artificial diet to which 50 μg/cm^2 of the test compound (dissolved in 50 μL of 90:10 acetone-water mixture) had been applied (to each of eight wells) and then allowed to dry. Trays were covered with a clear self-adhesive cover, and held at 25° C., 14:10 light-dark for five to seven days. Percent mortality was recorded for the larvae in each well; activity in the eight wells was then averaged. The results are indicated in the table entitled “Table 3: Assay Results Part 1” (See Table Section).

In series [2] the test system is Beet Armyworm (BAW) (Spodoptera exigua). Kind of series: Bioassay on Beet Armyworm (BAW), 128-well diet tray assay. It counts as in vivo. Particulars: Spodoptera exigua, read-out: BAW Rating. Put shortly:
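Artificial diet treated with 50 μg/cm^2 compound in 90:10 acetone-water was dried, then one to five second-instar larvae were placed per well, eight wells per compound. Trays were held at 25° C., 14:10 light-dark for five to seven days, and percent mortality averaged across wells.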

Series [3] relates to Cabbage Looper (CL) (Trichoplusia ni). Kind of series: Bioassay on Cabbage Looper (CL), 128-well diet tray assay. The note with it: Table 5: Prophetic Compounds Subsequently Exemplified, read-out: CL Rating. In kind it is in vivo. The procedure: as §1
Bioassays on CL (Trichoplusia ni)
Bioassays on CL were conducted using a 128-well diet tray assay. One to five second instar CL larvae were placed in each well (3 mL) of the diet tray that had been previously filled with 1 mL of artificial diet to which 50 μg/cm^2 of the test compound (dissolved in 50 μL of 90:10 acetone-water mixture) had been applied (to each of eight wells) and then allowed to dry. Trays were covered with a clear self-adhesive cover, and held at 25° C., 14:10 light-dark for five to seven days. Percent mortality was recorded for the larvae in each well; activity in the eight wells was then averaged. The results are indicated in the table entitled “Table 4: Assay Results Part 2” (See Table Section).

Series [4] has as its system Green Peach Aphid (GPA) (Myzus persicae). Kind of series: Bioassay on Green Peach Aphid (GPA), foliar spray on cabbage seedlings. In kind it is in vivo. The note with it: 72 h, Table 5: Prophetic Compounds Subsequently Exemplified, read-out: GPA Rating. The procedure:
Certain molecules disclosed in this document were tested against GPA using procedures described in the following example. In the reporting of the results, the “GPA Rating Table” was used (See Table Section).
Cabbage seedlings grown in 3-inch pots, with 2-3 small (3-5 cm) true leaves, were used as test substrate. The seedlings were infested with 20-50 GPA (wingless adult and nymph stages) one day prior to chemical application. Four pots with individual seedlings were used for each treatment. Test compounds (2 mg) were dissolved in 2 mL of acetone/methanol (1:1) solvent, forming stock solutions of 1000 ppm test compound. The stock solutions were diluted 5× with 0.025% Tween 20 in H2O to obtain the solution at 200 ppm test compound. A hand-held aspirator-type sprayer was used for spraying a solution to both sides of […] leaves until runoff. Reference plants (solvent check) were sprayed with the diluent only containing 20% by volume of acetone/methanol (1:1) solvent. Treated plants were held in a holding room for three days at approximately 25° C. and ambient relative humidity (RH) prior to grading. Evaluation was conducted by counting the number of live aphids per plant under a microscope. Percent Control was measured by using Abbott's correction formula (W. S. Abbott, “A Method of Computing the Effectiveness of an Insecticide” J. Econ. Entomol. 18 (1925), pp. 265-267) as follows. Corrected % Control=100*(X−Y)/X • where • X=No. of live aphids on solvent check plants and • Y=No. of live aphids on treated plants
The results are indicated in the tables entitled “Table 3: Assay Results” and “Table 4: Assay Results Part 2” (See Table Section).

Where [5] appears, read: Table 5: Prophetic Compounds Subsequently Exemplified.

The melting point is the temperature, or range, at which the solid turns liquid. Molecule `NC(=O)c1ccc(/C=C/C(c2cc(Cl)cc(Cl)c2)C(F)(F)F)cc1` (stereo not drawn) [AC2] yielded a melting point of 110 to 112 °C.

For `Cc1cc(/C=C/C(c2cc(Cl)cc(Cl)c2)C(F)(F)F)ccc1C(=O)NCC(=O)NCC(F)(F)F` (stereo not drawn) [AC24], the pest or weed control at 50 µg/cm2 in series [1] and in series [2] (Table 3: Assay Results Part 1) was 50 to 100% in each case.

In the case of `O=C(NC1(C(=O)NCC(F)(F)F)CC1)c1ccc(/C=C/C(c2ccc(Cl)c([N+](=O)[O-])c2)C(F)(F)F)cc1C(F)(F)F` (stereo not drawn) [Compound P470], the pest or weed control at 50 µg/cm2 in series [3] and in series [2] (setting [5]) was 50 to 100% each time. The pest or weed control at 200 µg/mL in series [4] is 0 to 80%.

`CCNC(=O)C1(NC(=O)c2ccc(/C=C/C(c3cc(Cl)c(Cl)c(Cl)c3)C(F)(F)F)cc2C(F)(F)F)CC1` (stereo not drawn) [Compound P1025]: the pest or weed control at 50 µg/cm2 in series [3] and in series [2] (setting [5]) was 50 to 100% in each case. Also, the pest or weed control at 200 µg/mL in series [4] fell in the range of 0 to 80%.

As for `CCNC(=O)C1(NC(=O)c2ccc(/C=C/C(c3cc(Cl)c(Cl)c(Cl)c3)C(F)(F)F)cc2C)CC1` (stereo not drawn) [Compound P1026], the pest or weed control at 50 µg/cm2 in series [3] and in series [2] (setting [5]) was 50 to 100% each time. Moreover, the pest or weed control at 200 µg/mL in series [4] is 0 to 80%.

(Values after patent US9212163B2, “Pesticidal compositions and processes related thereto” (Dow AgroSciences LLC, priority 2012, dated 2015).)
